Reference: ChEMBL document CHEMBL1136877, “2,4(5)-diarylimidazoles as inhibitors of hNaV1.2 sodium channels: pharmacological evaluation and structure-property relationships” (Bioorg Med Chem, 2009)
Active and inactive are the calls of the source. The rule behind the calls is not given here.

Tests used:
[1] = Octanol-buffer partition coefficient, log D at pH 7.4 by shake-flask method; type: physicochemical
[2] = target: T1, Sodium channel protein type 2 subunit alpha (Homo sapiens, UniProt Q99250); test: Inhibition of human Nav1.2 channel expressed in HEK cells at 10 uM by patch-clamp electrophysiology method; type: cell-based; details: HEK293
Target sequence in this assay (Q99250 whole entry, looked up): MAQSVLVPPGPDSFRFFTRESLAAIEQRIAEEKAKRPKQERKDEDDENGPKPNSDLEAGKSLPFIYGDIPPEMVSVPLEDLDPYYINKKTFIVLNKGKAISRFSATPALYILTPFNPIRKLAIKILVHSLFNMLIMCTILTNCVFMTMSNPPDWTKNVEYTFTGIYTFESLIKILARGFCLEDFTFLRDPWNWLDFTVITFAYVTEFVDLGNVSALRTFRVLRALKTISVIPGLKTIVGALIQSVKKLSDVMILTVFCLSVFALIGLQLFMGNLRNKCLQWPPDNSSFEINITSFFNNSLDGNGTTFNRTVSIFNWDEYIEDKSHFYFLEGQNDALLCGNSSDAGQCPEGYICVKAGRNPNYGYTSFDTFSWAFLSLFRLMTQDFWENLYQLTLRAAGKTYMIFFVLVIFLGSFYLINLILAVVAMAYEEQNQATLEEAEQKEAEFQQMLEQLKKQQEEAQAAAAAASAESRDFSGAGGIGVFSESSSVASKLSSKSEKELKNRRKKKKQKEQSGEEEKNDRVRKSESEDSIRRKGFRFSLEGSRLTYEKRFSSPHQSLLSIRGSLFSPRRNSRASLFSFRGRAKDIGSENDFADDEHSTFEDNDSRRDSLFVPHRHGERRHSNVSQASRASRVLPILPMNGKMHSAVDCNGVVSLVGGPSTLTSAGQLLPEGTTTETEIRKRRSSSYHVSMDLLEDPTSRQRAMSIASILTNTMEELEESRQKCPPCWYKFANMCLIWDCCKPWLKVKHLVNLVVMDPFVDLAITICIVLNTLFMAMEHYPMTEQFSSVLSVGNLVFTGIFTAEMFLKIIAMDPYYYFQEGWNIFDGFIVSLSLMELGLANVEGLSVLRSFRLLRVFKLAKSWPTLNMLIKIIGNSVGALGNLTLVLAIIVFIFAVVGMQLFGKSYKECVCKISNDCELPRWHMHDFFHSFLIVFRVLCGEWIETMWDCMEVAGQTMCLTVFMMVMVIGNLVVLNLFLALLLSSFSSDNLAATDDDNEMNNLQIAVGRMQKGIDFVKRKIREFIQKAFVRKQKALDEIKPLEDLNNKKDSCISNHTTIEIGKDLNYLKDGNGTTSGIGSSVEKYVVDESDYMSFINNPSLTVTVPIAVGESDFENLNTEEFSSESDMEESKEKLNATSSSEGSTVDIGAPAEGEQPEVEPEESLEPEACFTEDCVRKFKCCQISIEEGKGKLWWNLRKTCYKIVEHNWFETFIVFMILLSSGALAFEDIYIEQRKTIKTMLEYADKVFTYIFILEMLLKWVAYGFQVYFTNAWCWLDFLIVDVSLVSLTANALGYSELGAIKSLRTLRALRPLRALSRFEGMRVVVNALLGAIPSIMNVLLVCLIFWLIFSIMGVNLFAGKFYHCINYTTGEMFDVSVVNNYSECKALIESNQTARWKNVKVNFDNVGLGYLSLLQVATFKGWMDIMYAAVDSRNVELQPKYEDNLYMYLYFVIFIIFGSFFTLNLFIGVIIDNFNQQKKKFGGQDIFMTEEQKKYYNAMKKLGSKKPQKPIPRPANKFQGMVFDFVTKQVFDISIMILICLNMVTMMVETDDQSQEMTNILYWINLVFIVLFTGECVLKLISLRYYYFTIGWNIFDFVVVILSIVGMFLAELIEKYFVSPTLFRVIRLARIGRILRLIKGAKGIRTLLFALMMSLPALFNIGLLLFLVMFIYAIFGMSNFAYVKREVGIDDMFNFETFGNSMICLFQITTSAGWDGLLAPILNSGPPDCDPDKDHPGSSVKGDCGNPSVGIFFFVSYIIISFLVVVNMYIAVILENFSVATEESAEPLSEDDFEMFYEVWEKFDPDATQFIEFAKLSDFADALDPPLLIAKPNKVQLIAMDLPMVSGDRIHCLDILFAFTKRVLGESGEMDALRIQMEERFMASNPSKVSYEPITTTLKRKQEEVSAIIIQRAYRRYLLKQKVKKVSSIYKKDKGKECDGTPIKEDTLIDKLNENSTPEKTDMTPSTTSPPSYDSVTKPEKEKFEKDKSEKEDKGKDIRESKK

[3] = Dissociation constant, pKa by potentiometric pH-metric method; type: physicochemical
[4] = target: T1, Sodium channel protein type 2 subunit alpha; test: Inhibition of human Nav1.2 channel expressed in HEK cells at 100 uM by patch-clamp electrophysiology method; type: cell-based; details: HEK293
Target sequence in this assay (Q99250 whole entry, looked up): as above

[5] = target: T1, Sodium channel protein type 2 subunit alpha; test: Inhibition of human Nav1.2 channel expressed in HEK cells by patch-clamp electrophysiology method; type: cell-based, HEK293
Target sequence in this assay (Q99250 whole entry): as the sequence (Q99250 whole entry, looked up) above

Row | SMILES | logD [1] | inhibition [2] | pKa [3] | inhibition [4] | IC50 [5]
1 | FC(F)(F)c1cccc(-c2c[nH]c(-c3ccc(Cl)cc3)n2)c1 |  | 27.5% |  | 43.6% | > 100 µM
2 | FC(F)(F)c1ccc(-c2nc(-c3ccccc3)c[nH]2)cc1 | 4.9 |  | 5.19 |  | 
3 | O=[N+]([O-])c1ccc(-c2nc(-c3cccc(C(F)(F)F)c3)c[nH]2)cc1 |  | 86.9% |  | 100% | 2.5 µM
4 | FC(F)(F)c1ccc(-c2c[nH]c(-c3ccccc3)n2)cc1 | 4.78 | 91.6% | 5.31 | 100% | 1.4 µM
5 | Nc1nnc(-c2cccc(Cl)c2Cl)c(N)n1 [LAMOTRIGINE] |  | 12.1% |  | 35.1% | > 100 µM
6 | FC(F)(F)c1cccc(-c2c[nH]c(-c3cccc(C(F)(F)F)c3)n2)c1 |  | 100% |  | 100% | 0.2 µM
7 | O=[N+]([O-])c1ccc(-c2c[nH]c(-c3ccccc3)n2)cc1 | 3.95 | inactive | 5.12 | 30.3% | 
8 | O=[N+]([O-])c1ccc(-c2nc(-c3ccccc3)c[nH]2)cc1 | 4.06 | 57.1% | 4.74 | 92.6% | 
9 | COc1ccc(-c2c[nH]c(-c3ccccc3)n2)cc1 | 3.66 | inactive | 5.83 | 33.3% | 

Next, values leading:

Row | logD [1] | inhibition [2] | pKa [3] | inhibition [4] | IC50 [5] | SMILES
10 | 3.89 | inactive | 4.92 | 20.4% |  | O=[N+]([O-])c1cccc(-c2nc(-c3ccccc3)c[nH]2)c1
11 | 4.76 |  | 5.45 |  |  | Clc1cccc(-c2c[nH]c(-c3ccccc3)n2)c1
12 | 4.54 | 7.5% | 5.12 | 92.2% |  | Clc1cccc(-c2nc(-c3ccccc3)c[nH]2)c1
13 | 4.27 | 92.5% | 5.37 | 100% | 1.4 µM | Clc1ccc(-c2nc(-c3ccccc3)c[nH]2)cc1
14 | 4.53 | 31.5% | 5.47 | 96.6% |  | Clc1ccc(-c2c[nH]c(-c3ccccc3)n2)cc1
15 | 3.72 | 7.8% | 5.65 | 80.5% | 40.6 µM | c1ccc(-c2c[nH]c(-c3ccccc3)n2)cc1
16 | 3.74 | 14.2% | 5.58 | 35.6% |  | COc1cccc(-c2c[nH]c(-c3ccccc3)n2)c1
17 | 3.9 | 15.6% | 4.82 | 85.8% |  | O=[N+]([O-])c1cccc(-c2c[nH]c(-c3ccccc3)n2)c1
18 | 3.84 | inactive | 5.57 | 41.7% |  | COc1cccc(-c2nc(-c3ccccc3)c[nH]2)c1
19 | 4.54 | 49.2% | 5.11 | 95.2% |  | FC(F)(F)c1cccc(-c2nc(-c3ccccc3)c[nH]2)c1
20 | 4.72 | 82.9% | 5.27 | 100% | 2.7 µM | FC(F)(F)c1cccc(-c2c[nH]c(-c3ccccc3)n2)c1
21 | 3.62 |  | 6.03 |  |  | COc1ccc(-c2nc(-c3ccccc3)c[nH]2)cc1
